From publication PMC9266004, “Potential Common Mechanisms of Cytotoxicity Induced by Amide Herbicides via TRPA1 Channel Activation” (International Journal of Environmental Research and Public …, 2022)
pIC50: −log10 of the molar value.

What was measured:
TRPA1-KO A549 cells = test: CCK-8 cell viability assay in TRPA1-KO A549 cells; format: cell-based, human; conditions: for pIC50: Homo sapiens, TRPA1-KO A549 cells, 24 h treatment, CCK-8, read-out: IC50 values of AHs, TRPA1-KO A549 Cells; for viability of TRPA1-KO A549 cells compared with AHs-treated WT cells: KO of TRPA1, AHs 150, 300, 600 μM
Description: The hTRPA1 gene sequence (Gene ID: 8989) was obtained from the National Center for Biotechnology Information (NCBI) website (https://www.ncbi.nlm.nih.gov/gene/8989 accessed on 26 May 2022). Three gRNA sequences, namely, T1: 5′-[…]-[…], T16: 5′-[…]-3′, and T20: 5′-[…]-3′, were designed using the CRISPR online design tool (http://crispr.mit.edu/ accessed on 26 May 2022). Transfection of cells with gRNA-Cas9 was validated in test cells. Cell pool examination was performed using Sanger sequencing. Sequencing and tracer analysis were performed using the online tool TIDE (https://tide-calculator.nki.nl/ accessed on 26 May 2022) to investigate the cleavage efficiency of T1, T16, and T20. Cells from the cell pool were diluted in 96-well plates. Clones were observed under a microscope and wells containing single cell clones were labeled. Single cell clones were transferred to 24-well plates for expansion. Validation of knockout (KO) clones was performed via sequencing to confirm insertion and deletion on the genomes of KO clone candidates. Furthermore, mycoplasmas were detected for cloned cells with high KO using the Mycoplasma PCR Detection Kit.
(§1) Wild-type (WT) and TRPA1-KO A549 cells were cultured in McCoy’s 5A Media and F-12K Nutrient Mixture containing 10% fetal bovine serum, respectively. WT/TRPA1-KO A549 cells (5 × 10^4 cells/mL) were seeded in 96-well (100 μL/well) and 6-well (2 mL/well) plates and incubated at 37 °C with 5% CO2 in a humidified incubator for 24 h. WT/TRPA1-KO A549 cells were treated with AHs gradient concentrations (0, 150, 300, 600, 1200 μM) prepared in methanol (1.2 M) for 24 h. Additionally, WT/TRPA1-KO A549 cells were pre-treated with TRPA1 special inhibitor HC-030031 (100 μM) for 0.5 h and then treated with AHs gradient concentrations for 24 h.
To conduct the cell viability assay, the growth medium was removed from WT/TRPA1-KO A549 cells cultured in a 96-well plate. CCK-8 reagent was mixed with complete medium (1:9 volume ratio), and 100 µL of the CCK-8 reagent mixture was added to each well. The plate was incubated for 4 h and the absorbance was measured at 450 nm using a microplate reader (BNR05740; Molecular Devices, Sunnyvale, CA, USA). The average absorbance from each sextuplicate set of wells was calculated and the background control value was subtracted from each absorbance value. The percentage cell viability was determined using the following equation:cell viability (%) = [(As − Ab)/(Ac − Ab)] × 100% where As is the absorbance of the experimental well (containing medium, CCK-8 reagent, cells, and compound); Ac is the absorbance of the control well (containing medium, CCK-8 reagent, and cells); and Ab is the absorbance of the blank well (containing medium and CCK-8 reagent).

A549 cells = test: LDH cytotoxicity assay; format: cell-based, human; conditions: 150, 300, 600, 1200 μM, 24 h
Description: as §1
Using the Cytotoxicity LDH Assay Kit, lysis buffer (10 μL) was added to the high control well of a 96-well plate containing WT/TRPA1-KO A549 cells, which was then incubated for 0.5 h. Working solution was prepared by adding 5 mL assay buffer to the dye mixture vial, of which 100 μL was added to each well. The plate was protected from light and incubated at room temperature for 0.5 h. Subsequently, 50 μL stop solution was added to each well and the absorbance was measured immediately at 490 nm using a microplate reader (BNR05740, Molecular Devices). The average absorbance was calculated from each sextuplicate set of wells and the background control value was subtracted from each absorbance value. The percentage cytotoxicity was determined using the following equation:cytotoxicity (%) = [(Aa − Ab1)/(Ab2 − Ab1)] × 100% where Aa is the absorbance of the experimental well (containing medium, cells, and compound); Ab2 is the absorbance of the high control well (containing medium, cells, and lysis buffer); and Ab1 is the absorbance of the low control well (containing medium and cells).

zebrafish embryos = conditions: cited from earlier work

Structure (SMILES)	pIC50 (TRPA1-KO A549 cells)	viability of TRPA1-KO A549 cells compared with AHs-treated WT cells (TRPA1-KO A549 cells)	cell damage (LDH) compared with 0 μM AHs (A549 cells)	toxic effects (zebrafish embryos)
CCCOCCN(C(=O)CCl)c1c(CC)cccc1CC [Pretilachlor, pretilachlor]	2.44	significantly increased the viability	significantly increased cell damage	endocrine disorder, cell apoptosis, and immunotoxicity
CCC(=O)Nc1ccc(Cl)c(Cl)c1 [Propanil, propanil]	2.59	significantly increased the viability	significantly increased cell damage	
CCc1cccc(C)c1N(C(=O)CCl)C(C)COC (stereo not shown) [Metolachlor, metolachlor]	3.25	significantly increased the viability	significantly increased cell damage	
